Assay results reported in US11051515B2, “3-acyl-benzamides and their use as herbicides” (Bayer Aktiengesellschaft, priority 2017, dated 2021).

Experiments:
[1] = system: VIOTR; experiment: Pre-emergence action against VIOTR; assay type: in vivo, Viola tricolor; conditions: Dosage 320 g/ha, pre-emergence
Procedure, shortened: (§1)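 Seeds sown in sandy loam in wood-fiber pots and covered with soil. Greenhouse growth; visual damage scored after 3 weeks versus untreated controls (100% = dead, 0% = like control).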

[2] = system: ECHCG; experiment: Pre-emergence action against ECHCG; assay type: in vivo, Echinochloa crus-galli; conditions: pre-emergence, dosage 320 g/ha, scored visually after 3 weeks vs untreated controls
Procedure, shortened: as §1

[3] = system: HORMU; experiment: Pre-emergence action against HORMU; assay type: in vivo, Hordeum murinum; conditions: Dosage 320 g/ha
Text: (§2) Seeds of monocotyledonous and dicotyledonous weed plants and crop plants are laid out in sandy loam soil in wood-fiber pots and covered with soil. The compounds of the invention, formulated in the form of wettable powders (WP) or as emulsion concentrates (EC), are then applied to the surface of the covering soil in the form of an aqueous suspension or emulsion at a water application rate equating to […], with addition of 0.2% wetting agent. After the treatment, the pots are placed in a greenhouse and kept under good growth conditions for the trial plants. The damage to the test plants is scored visually after a test period of 3 weeks by comparison with untreated controls (herbicidal activity in percent (%): 100% activity=the plants have died, 0% activity=like control plants).

[4] = system: AMARE; experiment: Pre-emergence action against AMARE; assay type: in vivo, Amaranthus retroflexus; conditions: pre-emergence, dosage 320 g/ha, scored visually after 3 weeks vs untreated controls
Procedure, shortened: as §1

[5] = system: ABUTH; experiment: Pre-emergence action against ABUTH; assay type: in vivo, Abutilon theophrasti; conditions: pre-emergence, dosage 320 g/ha, scored visually after 3 weeks vs untreated controls
Procedure, shortened: as §1

[6] = system: ALOMY; experiment: Pre-emergence action against ALOMY; assay type: in vivo, Alopecurus myosuroides; conditions: dosage 320 g/ha; pre-emergence; scored visually after 3 weeks vs untreated controls; 100% = plants have died, 0% = like control plants
Procedure, shortened: as §1

[7] = system: SETVI; experiment: Pre-emergence action against SETVI; assay type: in vivo, Setaria viridis; conditions: pre-emergence, dosage 320 g/ha, scored visually after 3 weeks vs untreated controls
Procedure, shortened: as §1

[8] = system: ECHCG; experiment: Post-emergence action against ECHCG; assay type: in vivo, Echinochloa crus-galli; conditions: post-emergence, dosage 80 g/ha, visual assessment about 3 weeks after treatment vs untreated controls
Procedure, shortened: (§3)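 Weeds grown in sandy loam in greenhouse, treated at one-leaf stage (2–3 weeks after sowing) with WP or EC formulations sprayed as aqueous suspension/emulsion at 600 to […] water with 0.2% wetting agent. Visual rating after about 3 weeks versus untreated controls, as % herbicidal action (100% = plants dead, 0% = like control).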

[9] = system: VIOTR; experiment: Post-emergence action against VIOTR; assay type: in vivo, Viola tricolor; conditions: post-emergence, dosage 80 g/ha
Procedure, shortened: as §3

[10] = system: PHBPU; experiment: Post-emergence action against PHBPU; assay type: in vivo, Pharbitis purpurea; conditions: post-emergence, dosage 80 g/ha
Procedure, shortened: as §3

[11] = system: PHBPU; experiment: Pre-emergence action against PHBPU; assay type: in vivo, Pharbitis purpurea; conditions: Dosage 320 g/ha, pre-emergence
Procedure, shortened: as §1

[12] = system: STEME; experiment: Pre-emergence action against STEME; assay type: in vivo, Stellaria media; conditions: Dosage 320 g/ha, pre-emergence
Procedure, shortened: as §1

[13] = system: MATIN; experiment: Pre-emergence action against MATIN; assay type: in vivo, Matricaria inodora; conditions: Dosage 320 g/ha, pre-emergence
Procedure, shortened: as §1

[14] = system: AVEFA; experiment: Pre-emergence action against AVEFA; assay type: in vivo, Avena fatua; conditions: dosage 320 g/ha, scored visually after 3 weeks vs untreated controls
Procedure, shortened: as §1

[15] = system: VERPE; experiment: Pre-emergence action against VERPE; assay type: in vivo, Veronica persica; conditions: Dosage 320 g/ha, pre-emergence
Procedure, shortened: as §1

[16] = system: ABUTH; experiment: Post-emergence action against ABUTH; assay type: in vivo, Abutilon theophrasti; conditions: post-emergence, dosage 80 g/ha, visual assessment about 3 weeks after treatment vs untreated controls
Procedure, shortened: as §3

[17] = system: MATIN; experiment: Post-emergence action against MATIN; assay type: in vivo, Matricaria inodora; conditions: post-emergence, dosage 80 g/ha, visual assessment about 3 weeks after treatment vs untreated controls
Procedure, shortened: as §3

[18] = system: LOLRI; experiment: Pre-emergence action against LOLRI; assay type: in vivo, Lolium rigidum; conditions: dosage 320 g/ha, scored visually after 3 weeks vs untreated controls
Text: as §2

[19] = system: AMARE; experiment: Post-emergence action against AMARE; assay type: in vivo, Amaranthus retroflexus; conditions: post-emergence, dosage 80 g/ha, visual assessment about 3 weeks after treatment vs untreated controls
Procedure, shortened: as §3

[20] = system: STEME; experiment: Post-emergence action against STEME; assay type: in vivo, Stellaria media; conditions: post-emergence, dosage 80 g/ha
Procedure, shortened: as §3

[21] = system: CYPES; experiment: Pre-emergence action against CYPES; assay type: in vivo, Cyperus esculentus; conditions: pre-emergence, dosage 320 g/ha, scored visually after 3 weeks vs untreated controls
Procedure, shortened: as §1

[22] = system: POLCO; experiment: Post-emergence action against POLCO; assay type: in vivo, Polygonum convolvulus; conditions: post-emergence, dosage 80 g/ha
Procedure, shortened: as §3

[23] = system: POLCO; experiment: Pre-emergence action against POLCO; assay type: in vivo, Polygonum convolvulus; conditions: Dosage 320 g/ha, pre-emergence
Procedure, shortened: as §1

[24] = system: SETVI; experiment: Post-emergence action against SETVI; assay type: in vivo, Setaria viridis; conditions: post-emergence, dosage 80 g/ha, visual assessment about 3 weeks after treatment vs untreated controls
Procedure, shortened: as §3

[25] = system: CYPES; experiment: Post-emergence action against CYPES; assay type: in vivo, Cyperus esculentus; conditions: post-emergence, dosage 80 g/ha, visual assessment about 3 weeks after treatment vs untreated controls
Procedure, shortened: as §3

[26] = system: AVEFA; experiment: Post-emergence action against AVEFA; assay type: in vivo, Avena fatua; conditions: post-emergence, dosage 80 g/ha, visual assessment about 3 weeks after treatment vs untreated controls
Procedure, shortened: as §3

Row | Structure (SMILES) | Pre-emergence action against VIOTR [1] [%] | Pre-emergence action against ECHCG (herbicidal activity) [2] [%] | Pre-emergence action against HORMU [3] [%] | Pre-emergence action against AMARE (herbicidal activity) [4] [%] | Pre-emergence action against ABUTH (herbicidal activity) [5] [%] | Pre-emergence action against ALOMY (herbicidal activity in percent) [6] [%] | SETVI (Table B8, pre-emergence herbicidal activity) [7] [%] | Post-emergence action against ECHCG (herbicidal action in percent) [8] [%] | Post-emergence action against VIOTR [9] | Post-emergence action against PHBPU [10] | Pre-emergence action against PHBPU [11] [%] | Pre-emergence action against STEME [12] [%] | Pre-emergence action against MATIN [13] [%] | Pre-emergence action against AVEFA (herbicidal activity) [14] [%] | Pre-emergence action against VERPE [15] [%] | Post-emergence action against ABUTH (herbicidal action in percent) [16] [%] | Post-emergence action against MATIN (herbicidal action in percent) [17] [%] | Pre-emergence action against LOLRI (herbicidal activity) [18] [%] | Post-emergence action against AMARE (herbicidal action in percent) [19] [%] | Post-emergence action against STEME [20] | also measured
1 | CCCC(=O)c1c(C(F)(F)F)ccc(C(=O)Nc2nnnn2CC)c1Cl [2-139] | 100 | 100 | 80 | 100 | 100 | 100 | 100 | 90 | 100 | 100 | 100 | 100 | 100 | 80 | 100 | 90 | 90 | 100 | 100 | 100 | Pre-emergence action against CYPES (herbicidal activity) [21]: 100%
2 | CCn1nnnc1NC(=O)c1ccc(C(F)F)c(C(C)=O)c1Cl [2-164] | 100 | 100 | 80 | 100 | 100 | 100 | 100 | 100 | 100 | 100 | 90 | 100 | 100 | 90 | 100 | 100 | 100 | 80 | 100 | 100 | Post-emergence action against POLCO [22]: 80; Pre-emergence action against POLCO [23]: 100%; Post-emergence action against SETVI (herbicidal action in percent) [24]: 100%; Post-emergence action against CYPES (herbicidal action in percent) [25]: 90%; Pre-emergence action against CYPES (herbicidal activity) [21]: 100%
3 | CCCn1nnnc1NC(=O)c1ccc(C(F)F)c(C(=O)C2CC2)c1Cl [3-168] | 100 | 100 | 90 | 100 | 100 | 100 | 100 | 100 | 100 | 100 | 100 | 100 | 100 | 100 | 100 | 100 | 100 | 100 | 100 | 100 | Post-emergence action against AVEFA (herbicidal action in percent) [26]: 90%; Pre-emergence action against POLCO [23]: 80%; Post-emergence action against SETVI (herbicidal action in percent) [24]: 100%; Post-emergence action against CYPES (herbicidal action in percent) [25]: 90%
